# Laboratory results as given in US20060287320A1, “Preparation of thioarabinofuranosyl compounds and use thereof” (Southern Research Institute, priority 1998, published 2006).
# How the values were obtained:
# CEM cells [1] = assay: Complete metabolism of dCyd, T-dCyd, araC and T-araC in CEM cells; format: cell-based; settings: 100 nM, incubation 24 hours
# Description: The complete metabolism of each compound was determined: The medium was analyzed for the original compound, its deaminated form using reverse phase HPLC, and H20; the acid-soluble extract was analyzed by SAX HPLC for phosphorylated metabolites; and the incorporation of radioactivity into acid-precipitable material (DNA) was determined.
# SK-MEL 28 Melanoma = assay: In vitro IC50, 72 hour exposure, SRB assay; format: cell-based; settings: Homo sapiens, read-out: IC50 Molar Values
# Description: (§1) EXAMPLE 3 The following in vitro tests were carried out.
# (§2) The above tests were carried out with a 72 hour exposure to the compound using Natural Red assay for all cell lines except SK-MEL 28 which was done with SRB assay.
# SC Colon 36 Tumor = assay: Response of SC Colon 36 Tumor to Treatment; format: in vivo; settings: 8 Mg/Kg IP, Q 4H × 3 day 9-17
# Description: (§3) The following in vivo tests were carried out to illustrate the effectiveness of the compounds of the present invention.
# [2] = tested on: protein synthesis in CEM cells; assay: Effect on protein synthesis ([3H]leucine incorporation) in CEM cells; format: cell-based; settings: Homo sapiens, CCRF-CEM, 750 nM, average of two experiments, read-out: protein synthesis, Percent of control
# Description: (§4) Radiolabeled precursors of DNA [^3H]dThd, RNA ([^3H]Urd), or protein ([^3H]leucine) were added to each treatment 30 minutes after the addition of each compound. Samples were taken 1, 2, 3 and 4 hours after the addition of radiolabeled precursors, and the incorporation of radioactivity into RNA, DNA, or protein were determined as described (Parker et al, Biochem. Pharmacol. 55: 1673-1681, 1998). Each number represents the average of two experiments.
# [3] = tested on: RNA synthesis in CEM cells; assay: Effect on RNA synthesis ([3H]Urd incorporation) in CEM cells; format: cell-based; settings: 750 nM, average of two experiments
# Description: as §4
# CEM cells (wild-type) [4] = assay: Inhibition of CEM cell growth, wild-type; settings: Homo sapiens, CCRF-CEM, read-out: IC50 (nM) Wild-type
# Description: (§7) CEM cells were incubated with various concentrations of each compound and the effect on. cell numbers was determined using a Coulter Counter. The IC50 was determined from a plot of the percent of control growth versus drug concentration. The data presented are the mean and standard deviation from 3 separate experiments.
# [5] = tested on: DNA synthesis in CEM cells; assay: Effect on DNA synthesis ([3H]dThd incorporation) in CEM cells; format: cell-based; settings: Homo sapiens, CCRF-CEM, 750 nM, average of two experiments, read-out: DNA synthesis, Percent of control
# Description: as §4
# SC CAKI-1 Renal Tumor = assay: Response of SC CAKI-1 Renal Tumor to Treatment; format: in vivo; settings: Q 4H × 3 day 7-15
# Description: as §3
# CEM cells [6] = assay: Effect of F-dUrd on metabolism (deamination) in CEM cells; format: cell-based; settings: 100 nM, incubation time 24 hours
# Description: The complete metabolism of each compound was determined as described in the legend to Table 12, and the percent of deaminated metabolites for each compound was determined.
# araC-resistant CEM cells [7] = assay: Metabolism of dCyd and analogs in araC-resistant CEM cells; format: cell-based; settings: 100 nM, incubation time 1 hour
# Description: (§5) The radioactivity in the 5′-triphosphate peak and the incorporation of radioactivity in the acid-insoluble fraction (DNA) was determined.
# araC-resistant CEM cells [8] = assay: Inhibition of CEM cell growth, araC-resistant
# Description: as §7
# CEM cells (wild-type) [9] = assay: Metabolism of dCyd and analogs in wild-type CEM cells; format: cell-based; settings: WT CEM cells; 100 nM; incubation time 1 hour
# Description: as §5
# [10] = Phosphorylation in cell-free CEM extracts, araC-resistant; format: biochemical
# Description: (§6) The number in parentheses is the number of experiments performed. […] At various times after the initiation of the experiment, an aliquot of each reaction volume was removed and placed on DE-81 filters. The filters were washed with 1 mM ammonium formate and ethanol, and the amount of radioactivity on each filter was determined. […] This assay was verified by HPLC.
# NC1-H23 Lung = assay: In vitro IC50, 72 hour exposure, Natural Red assay; format: cell-based; settings: read-out: IC50 Molar Values
# Description: as §1, §2
# DLD-1 Colon = assay: In vitro IC50, 72 hour exposure, Natural Red assay; format: cell-based; settings: Homo sapiens, read-out: IC50 Molar Values
# Description: as §1, §2
# CAK1-1 Renal = assay: In vitro IC50, 72 hour exposure, Natural Red assay; format: cell-based; settings: read-out: IC50 Molar Values
# Description: as §1, §2
# LOX IMV1 Melanoma = assay: In vitro IC50, 72 hour exposure, Natural Red assay; format: cell-based; settings: read-out: IC50 Molar Values
# Description: as §1, §2
# PC-3 Prostate = assay: In vitro IC50, 72 hour exposure, Natural Red assay; format: cell-based; settings: read-out: IC50 Molar Values
# Description: as §1, §2
# SNB-7 (CNS) = assay: In vitro IC50, 72 hour exposure, Natural Red assay; format: cell-based; settings: Homo sapiens, read-out: IC50 Molar Values
# Description: as §1, §2
# ZR-75-1 Mammary = assay: In vitro IC50, 72 hour exposure, Natural Red assay; format: cell-based; settings: Homo sapiens, read-out: IC50 Molar Values
# Description: as §1, §2
# SC HCT-116 Colon Tumor = assay: Response of SC HCT-116 Colon Tumor to Treatment; format: in vivo; settings: Q 4H × 3 day 6-14
# Description: as §3
# [11] = Phosphorylation in cell-free CEM extracts, wild-type; format: biochemical; settings: wild-type CEM cell extract; 1 μm substrate
# Description: as §6
# [12] = biological target: T1, dCyd Kinase Activity Isolated from Molt-4 Cells (Homo sapiens, UniProt P27707); assay: Substrate characteristics with dCyd kinase activity isolated from Molt-4 cells; format: biochemical; settings: dCyd kinase activity from Molt-4 cells
# T1 construct: endogenous in cells; host or cells: Molt-4 cells (enzyme purified from the cells)
# T1 sequence (P27707 whole entry): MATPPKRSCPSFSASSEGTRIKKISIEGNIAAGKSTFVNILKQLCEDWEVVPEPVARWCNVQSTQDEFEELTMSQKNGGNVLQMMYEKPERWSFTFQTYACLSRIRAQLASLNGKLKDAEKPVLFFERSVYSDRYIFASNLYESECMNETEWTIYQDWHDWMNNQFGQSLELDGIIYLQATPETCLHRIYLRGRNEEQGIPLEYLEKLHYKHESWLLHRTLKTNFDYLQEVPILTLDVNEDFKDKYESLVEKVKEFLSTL
# Description: Each assay was done in duplicate and the kinetic constants were determined from linear double-reciprocal plots of 1/velocity versus 1/concentration of the substrate. The best line was determined by linear regression from at least 5 datum points, and the Km and Vmax were determined from the x and y intercepts.
structure (smiles),measurement,setting,value
"Nc1ccn([C@@H]2S[C@H](CO)[C@@H](O)[C@@H]2O)c(=O)n1 [T-araC, 1-(4-Thio-β-D-arabinofuranosyl) cytosine]",DNA (percent of total),CEM cells [1],0.3% of total
same,Original Compound (percent of total),CEM cells [1],96% of total
same,IC50,SK-MEL 28 Melanoma,7 µM
same,Days Delay (T − C),SC Colon 36 Tumor,>38.5 days
same,Days to 2 Doubling,SC Colon 36 Tumor,>49.0 days
same,Non-Specific Deaths/Total,SC Colon 36 Tumor,0/5
same,Tumor Free Surv/Total,SC Colon 36 Tumor,4/5
same,Tumor Regression Number of Complete,SC Colon 36 Tumor,4
same,Tumor Regression Number of Partial,SC Colon 36 Tumor,0
same,activity at 0.75 µM,[2],72%
same,"RNA synthesis, Percent of control",[3],87% of control
same,IC50,CEM cells (wild-type) [4],24 ± 9 nM
same,activity at 0.75 µM,[5],16%
same,Days Delay (T − C),SC CAKI-1 Renal Tumor; 8 Mg/Kg IP,41.2 days
same,Days to 3 Doubling,SC CAKI-1 Renal Tumor; 8 Mg/Kg IP,50.7 days
same,Non-Specific Deaths/Total,SC CAKI-1 Renal Tumor; 8 Mg/Kg IP,0/6
same,Tumor Free Surv/Total,SC CAKI-1 Renal Tumor; 8 Mg/Kg IP,0/6
same,Tumor Regression Duration Med,SC CAKI-1 Renal Tumor; 8 Mg/Kg IP,12.7 days
same,Tumor Regression Duration Range,SC CAKI-1 Renal Tumor; 8 Mg/Kg IP,9 to 18 days
same,Tumor Regression Number of Complete,SC CAKI-1 Renal Tumor; 8 Mg/Kg IP,4
same,Tumor Regression Number of Partial,SC CAKI-1 Renal Tumor; 8 Mg/Kg IP,1
same,Days Delay (T − C),SC CAKI-1 Renal Tumor; 16 Mg/Kg IP,50.3 days
same,Days to 3 Doubling,SC CAKI-1 Renal Tumor; 16 Mg/Kg IP,59.8 days
same,Non-Specific Deaths/Total,SC CAKI-1 Renal Tumor; 16 Mg/Kg IP,1/6
same,Tumor Free Surv/Total,SC CAKI-1 Renal Tumor; 16 Mg/Kg IP,0/6
same,Tumor Regression Duration Med,SC CAKI-1 Renal Tumor; 16 Mg/Kg IP,26.9 days
same,Tumor Regression Duration Range,SC CAKI-1 Renal Tumor; 16 Mg/Kg IP,16 to 48 days
same,Tumor Regression Number of Complete,SC CAKI-1 Renal Tumor; 16 Mg/Kg IP,5
same,Tumor Regression Number of Partial,SC CAKI-1 Renal Tumor; 16 Mg/Kg IP,0
same,Percent Deamination,CEM cells [6]; F-dUrd 0 μM,0%
same,Percent Deamination,CEM cells [6]; F-dUrd 10 μM,0%
same,DNA,araC-resistant CEM cells [7],0.0025 pmoles/10^6 cells
same,DNA (percent of WT),araC-resistant CEM cells [7],45% of WT
same,Total,araC-resistant CEM cells [7],0.0535 pmoles/10^6 cells
same,Total (percent of WT),araC-resistant CEM cells [7],26% of WT
same,IC50,"araC-resistant CEM cells [8]; Homo sapiens, CCRF-CEM, read-out: IC50 (nM) araC-resistant",125 ± 84 nM
same,Resistant/WT,araC-resistant CEM cells [8]; ratio of IC50 araC-resistant / wild-type CEM cells,5
same,DNA,CEM cells (wild-type) [9],0.0056 pmoles/10^6 cells
same,Total,CEM cells (wild-type) [9],0.2076 pmoles/10^6 cells
same,"Phosphorylation, araC-resistant CEM cells","[10]; araC-resistant CEM cell extract, 1 μm substrate",0.011 pmoles/mg protein/minute
same,Percent of wild-type,[10]; phosphorylation in araC-resistant vs wild-type CEM extract,1.3% of wild-type
same,IC50,NC1-H23 Lung,5 µM
same,IC50,DLD-1 Colon,7 µM
same,IC50,CAK1-1 Renal,3 µM
same,IC50,LOX IMV1 Melanoma,7 µM
same,IC50,PC-3 Prostate,8 µM
same,IC50,SNB-7 (CNS),1 µM
same,IC50,ZR-75-1 Mammary,3 µM
same,Days Delay (T − C),SC HCT-116 Colon Tumor; 13.3 Mg/Kg IP,>43.1 days
same,Days to 2 Doubling,SC HCT-116 Colon Tumor; 13.3 Mg/Kg IP,>52.0 days
same,Non-Specific Deaths/Total,SC HCT-116 Colon Tumor; 13.3 Mg/Kg IP,0/6
same,Tumor Free Surv/Total,SC HCT-116 Colon Tumor; 13.3 Mg/Kg IP,5/6
same,Tumor Regression Duration Med,SC HCT-116 Colon Tumor; 13.3 Mg/Kg IP,23.6 days
same,Tumor Regression Duration Range (Days),SC HCT-116 Colon Tumor; 13.3 Mg/Kg IP,24-24 Days
same,Tumor Regression Number of Complete,SC HCT-116 Colon Tumor; 13.3 Mg/Kg IP,6
same,Tumor Regression Number of Partial,SC HCT-116 Colon Tumor; 13.3 Mg/Kg IP,0
same,Days Delay (T − C),SC HCT-116 Colon Tumor; 20 Mg/Kg IP,>43.1 days
same,Days to 2 Doubling,SC HCT-116 Colon Tumor; 20 Mg/Kg IP,>52.0 days
same,Non-Specific Deaths/Total,SC HCT-116 Colon Tumor; 20 Mg/Kg IP,0/6
same,Tumor Free Surv/Total,SC HCT-116 Colon Tumor; 20 Mg/Kg IP,6/6
same,Tumor Regression Number of Complete,SC HCT-116 Colon Tumor; 20 Mg/Kg IP,6
same,Tumor Regression Number of Partial,SC HCT-116 Colon Tumor; 20 Mg/Kg IP,0
same,"Phosphorylation, Wild-type",[11],0.83 pmoles/mg protein/minute
same,Relative Vmax,[12],0.46
